Data published in patent publication US20240279221A1, “HETEROCYCLIC COMPOUNDS AND METHODS OF USE” (Schrödinger, Inc., priority 2021, published 2024).

target: SOS1:KRAS (G12C) interaction (Homo sapiens (Human), UniProt Q07889); test: SOS1-KRas(G12C) FRET Assay; format: binding; details: 0.5 nM His10-SOS1 (res. 564-1049), 2.5 nM GST-KRAS (res. 1-169, G12C); read-out: SOS-KRas(G12C) FRET IC50
Experimental: Inhibition of the SOS1:KRAS interaction was measured using purified GST-tagged KRAS (res. 1-169, G12C, purified based on Hillig, et al., Proc Natl Acad Sci USA (2019); 116(7):2551-2560) and recombinant His10-SOS1 (res. 564-1049; purified based on Hillig, et al.). The final assay was performed at 20 uL with 0.5 nM SOS1 protein and 2.5 nM KRAS protein in a buffer of PBS, 0.1% BSA, 5 mM MgCl2, 0.0025% Igepal, 100 mM KF, 5 mM DTT in a white 384 square well OptiPlate (PerkinElmer, Cat. 6007290). A 2× KRAS working solution was prepared in an assay buffer containing 5 nM GST-KRAS G12C and 2 nM anti-GST-Eu(K) (Cisbio, Cat. 61GSTKLA) and pre-incubated for 15 minutes at 25° C. Compounds were serially diluted in 100% DMSO from 2 mM (positive control, compound I-13, PCT Publ. No. WO2018/115380) or 20 mM and then diluted 1:20 in assay buffer before incubation with a solution of SOS1 protein mixed 1:5 with anti-6His-XL665 FRET donor (Cisbio, Cat. 61HISXL) for 15 minutes at 25° C. before addition of 2× KRAS working solution. The final DMSO concentration is 0.5%. Plates were incubated at RT for 2 hrs before the FRET signal was measured using Envision at emission 665 nm and 615 nm. FRET signal was converted to percentage of protein-protein interaction using the following equation:
[formula] • C: signal with compound treatment • P: signal for positive control (DMSO) • N: signal for negative control (no SOS1 added) • IC50 and Hill coefficients were obtained using Graph Pad Prism (Graph Pad software, Inc, USA) with non-linear regression analysis.

Sequence of SOS1:KRAS (G12C) interaction (Q07889 564-1049, stated change not applied): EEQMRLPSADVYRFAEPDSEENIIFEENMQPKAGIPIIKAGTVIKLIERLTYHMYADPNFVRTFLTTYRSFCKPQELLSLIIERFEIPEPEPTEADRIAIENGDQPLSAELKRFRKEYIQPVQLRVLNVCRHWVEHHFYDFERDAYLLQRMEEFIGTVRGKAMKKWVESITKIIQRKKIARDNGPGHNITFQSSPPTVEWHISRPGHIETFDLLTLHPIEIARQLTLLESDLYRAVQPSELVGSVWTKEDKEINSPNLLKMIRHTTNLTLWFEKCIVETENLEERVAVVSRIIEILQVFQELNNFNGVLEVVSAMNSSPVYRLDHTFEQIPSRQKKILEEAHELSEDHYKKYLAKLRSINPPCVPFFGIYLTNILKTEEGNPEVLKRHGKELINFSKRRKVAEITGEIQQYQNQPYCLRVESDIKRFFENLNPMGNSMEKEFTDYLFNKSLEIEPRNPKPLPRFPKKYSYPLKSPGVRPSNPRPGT

Row | SMILES | IC50
1 | CCn1nc(N[C@H](C)c2cccc(C(F)(F)F)c2C)c2cn(C3CC3)c(=O)cc2c1=O [Example 8, (R)-6-cyclopropyl-2-ethyl-4-((1-(2-methyl-3-(trifluoromethyl)phenyl)ethyl)amino)-2,6-dihydropyrido[3,4-d]pyridazine-1,7-dione] | 1310 nM
2 | Cc1c([C@@H](C)Nc2nn(C)c(=O)c3cc(=O)n(C4CCN(C)CC4)cc23)cccc1C(F)(F)F [Example 23, (R)-2-methyl-4-((1-(2-methyl-3-(trifluoromethyl)phenyl)ethyl)amino)-6-(1-methylpiperidin-4-yl)-2,6-dihydropyrido[3,4-d]pyridazine-1,7-dione] | 1950 nM
3 | COc1c(=O)n(C2CCOCC2)cc2c(N[C@H](C)c3cccc(C(C)(F)F)c3F)nn(C)c(=O)c12 [Example 37, (R)-4-((1-(3-(1,1-difluoroethyl)-2-fluorophenyl)ethyl)amino)-8-methoxy-2-methyl-6-(tetrahydro-2H-pyran-4-yl)-2,6-dihydropyrido[3,4-d]pyridazine-1,7-dione] | 30.4 nM
4 | C[C@H](Nc1nn(C)c(=O)c2cc(=O)n(C3CCOCC3)cc12)c1cccc2sccc12 [Example 63, (S)-4-((1-(benzo[b]thiophen-4-yl)ethyl)amino)-2-methyl-6-(tetrahydro-2H-pyran-4-yl)-2,6-dihydropyrido[3,4-d]pyridazine-1,7-dione] | > 10000 nM
5 | C[C@H](Nc1nn(C)c(=O)c2cc(=O)n(C3CC3)cc12)c1cccc2sccc12 [Example 65, (S)-4-((1-(benzo[b]thiophen-4-yl)ethyl)amino)-6-cyclopropyl-2-methyl-2,6-dihydropyrido[3,4-d]pyridazine-1,7-dione] | > 100000 nM
6 | COc1c(=O)n(C2CC2)cc2c(N[C@H](C)c3cccc(C(F)F)c3F)nn(C)c(=O)c12 [Example 85, (R)-6-cyclopropyl-4-((1-(3-(difluoromethyl)-2-fluorophenyl)ethyl)amino)-8-methoxy-2-methyl-2,6-dihydropyrido[3,4-d]pyridazine-1,7-dione] | 192 nM
7 | C[C@@H](Nc1nn(C)c(=O)c2c(OCCN(C)C)c(=O)n(C3(C(F)F)CC3)cc12)c1cccc(C(F)F)c1F [Example 86, (R)-4-((1-(3-(difluoromethyl)-2-fluorophenyl)ethyl)amino)-6-(1-(difluoromethyl)cyclopropyl)-8-(2-(dimethylamino)ethoxy)-2-methyl-2,6-dihydropyrido[3,4-d]pyridazine-1,7-dione] | 35.3 nM
8 | C[C@@H](Nc1nn(C)c(=O)c2c(OC3CC(F)(F)C3)c(=O)n(C3(C(F)F)CC3)cc12)c1cccc(C(F)F)c1F [Example 87, (R)-8-(3,3-difluorocyclobutoxy)-4-((1-(3-(difluoromethyl)-2-fluorophenyl)ethyl)amino)-6-(1-(difluoromethyl)cyclopropyl)-2-methylpyrido[3,4-d]pyridazine-1,7(2H,6H)-dione] | 118 nM
9 | C[C@@H](Nc1nn(C)c(=O)c2c(OC3COC3)c(=O)n(C3(C(F)F)CC3)cc12)c1cccc(C(F)F)c1F [Example 88, (R)-4-((1-(3-(difluoromethyl)-2-fluorophenyl)ethyl)amino)-6-(1-(difluoromethyl)cyclopropyl)-2-methyl-8-(oxetan-3-yloxy)pyrido[3,4-d]pyridazine-1,7(2H,6H)-dione] | 83.5 nM
10 | C[C@@H](Nc1nn(C)c(=O)c2c(O[C@H]3C[C@H](F)C3)c(=O)n(C3(C(F)F)CC3)cc12)c1cccc(C(F)F)c1F [Example 89, 4-(((R)-1-(3-(difluoromethyl)-2-fluorophenyl)ethyl)amino)-6-(1-(difluoromethyl)cyclopropyl)-8-((1r,3R)-3-fluorocyclobutoxy)-2-methylpyrido[3,4-d]pyridazine-1,7(2H,6H)-dione] | 122 nM
11 | C[C@@H](Nc1nn(C)c(=O)c2c(OCC3COC3)c(=O)n(C3(C(F)F)CC3)cc12)c1cccc(C(F)F)c1F [Example 90, (R)-4-((1-(3-(difluoromethyl)-2-fluorophenyl)ethyl)amino)-6-(1-(difluoromethyl)cyclopropyl)-2-methyl-8-(oxetan-3-ylmethoxy)-2,6-dihydropyrido[3,4-d]pyridazine-1,7-dione] | 59.7 nM
12 | C[C@@H](Nc1nn(C)c(=O)c2cc(=O)n(C3CC3)cc12)c1ccc2c(c1)CCCC2 [Example 101, (R)-6-cyclopropyl-2-methyl-4-((1-(5,6,7,8-tetrahydronaphthalen-2-yl)ethyl)amino)-2,6-dihydropyrido[3,4-d]pyridazine-1,7-dione] | > 100000 nM
13 | C[C@H](Nc1nn(C)c(=O)c2cc(=O)n(C3CC3)cc12)c1ccc2c(c1)CCCC2 [Example 102, (S)-6-cyclopropyl-2-methyl-4-((1-(5,6,7,8-tetrahydronaphthalen-2-yl)ethyl)amino)-2,6-dihydropyrido[3,4-d]pyridazine-1,7-dione] | 3790 nM
14 | C[C@H](Nc1nn(C)c(=O)c2cc(=O)n(C3CC3)cc12)c1cccc(C(F)(F)CO)c1F [Example 103, (S)-6-cyclopropyl-4-((1-(3-(1,1-difluoro-2-hydroxyethyl)-2-fluorophenyl)ethyl)amino)-2-methyl-2,6-dihydropyrido[3,4-d]pyridazine-1,7-dione] | 7800 nM

Results, then the molecule that gave them:

Row | IC50 | SMILES
15 | 37 nM | C[C@@H](Nc1nn(C)c(=O)c2cc(=O)n(C3CC3)cc12)c1cccc(C(F)(F)CO)c1F [Example 104, (R)-6-cyclopropyl-4-((1-(3-(1,1-difluoro-2-hydroxyethyl)-2-fluorophenyl)ethyl)amino)-2-methyl-2,6-dihydropyrido[3,4-d]pyridazine-1,7-dione]
16 | > 10000 nM | C[C@H](Nc1nn(C)c(=O)c2cc(=O)n(C3CC3)cc12)c1cccc(C(F)(F)C(=O)N(C)C)c1F [Example 105, (S)-2-(3-(1-((6-cyclopropyl-2-methyl-1,7-dioxo-1,2,6,7-tetrahydropyrido[3,4-d]pyridazin-4-yl)amino)ethyl)-2-fluorophenyl)-2,2-difluoro-N,N-dimethylacetamide]
17 | 366 nM | C[C@@H](Nc1nn(C)c(=O)c2cc(=O)n(C3CC3)cc12)c1cccc(C(F)(F)C(=O)N(C)C)c1F [Example 106, (R)-2-(3-(1-((6-cyclopropyl-2-methyl-1,7-dioxo-1,2,6,7-tetrahydropyrido[3,4-d]pyridazin-4-yl)amino)ethyl)-2-fluorophenyl)-2,2-difluoro-N,N-dimethylacetamide]
18 | 271 nM | CNC(=O)C(F)(F)c1cccc([C@@H](C)Nc2nn(C)c(=O)c3cc(=O)n(C4CC4)cc23)c1F [Example 107, (R)-2-(3-(1-((6-cyclopropyl-2-methyl-1,7-dioxo-1,2,6,7-tetrahydropyrido[3,4-d]pyridazin-4-yl)amino)ethyl)-2-fluorophenyl)-2,2-difluoro-N-methylacetamide]
19 | > 10000 nM | CNC(=O)C(F)(F)c1cccc([C@H](C)Nc2nn(C)c(=O)c3cc(=O)n(C4CC4)cc23)c1F [Example 108, (S)-2-(3-(1-((6-cyclopropyl-2-methyl-1,7-dioxo-1,2,6,7-tetrahydropyrido[3,4-d]pyridazin-4-yl)amino)ethyl)-2-fluorophenyl)-2,2-difluoro-N-methylacetamide]
20 | 120 nM | COC(C)(C)C(F)(F)c1cccc([C@@H](C)Nc2nn(C)c(=O)c3cc(=O)n(C4CC4)cc23)c1F [Example 109, (R)-6-cyclopropyl-4-((1-(3-(1,1-difluoro-2-methoxy-2-methylpropyl)-2-fluorophenyl)ethyl)amino)-2-methyl-2,6-dihydropyrido[3,4-d]pyridazine-1,7-dione]
